Measured values published in patent US11866518B2, “Bicyclic peptide ligands specific for TSLP” (BicycleTx Limited, priority 2020, dated 2024).
Read-outs that look alike come from different tables or passages of the source.

Conditions: the molecule shown is the open-chain precursor, crosslinker bond, 29-membered ring, TATA/NH4HCO3, MeCN/H2O

Substance: Ac-Cys-MeAla-Trp(1-Me)-Ala(tBu)-Gln-Asp-Cys-Trp(1-Me)-ADMA-Gly-Phe(4-F)-Cys-NH2?
- ring closure, yield after HPLC: 19%

Substance: H-Cys-MeAla-Nal1-Ala(tBu)-Gln-Asp-Cys-Trp(1-Me)-ADMA-Gly-Phe(4-F)-Cys-dAla-NH2?
- ring closure, yield after HPLC (0.93 mM): 17%

Substance: N3CH2C(O)NH(CH2CH2O)3CH2CH2(CO)-Cys-MeAla-Trp(1-Me)-Ala(tBu)-Gln-Asp-Cys-Trp(1-Me)-ADMA-Gly-Phe(4-F)-Cys-NH2
- ring closure, yield after HPLC: 12%

Substance: n-octanoyl-Cys-MeAla-Trp(1-Me)-Ala(tBu)-Gln-Asp-Cys-Trp(1-Me)-ADMA-Gly-Phe(4-F)-Cys-NH2
- ring closure, yield after HPLC: 14%
